The values below are quoted from earlier work in patent US20050147632A1, “Virally infected plants as a source of insect reppellants/attractents” (priority 2002, published 2005).

The subject of this data set is neighboring plants. Conditions: Shulaev et al., Nature 385: 718-721, 1997.

Molecules are shown by their SMILES.

For the molecule `COC(=O)c1ccccc1O` [methyl salicylate], the “induction of plant pathogen resistance” value is “capable of inducing plant pathogen resistance in neighboring plants”.
